Experimental data as given in patent US10017509B2, “Macrocylic pyrimidine derivatives” (Janssen Pharmaceutica NV, priority 2014, dated 2018).

Columns and labels:
[1] = target: Vps34 (PIK3C3 lipid kinase) (Homo sapiens, UniProt Q8NEB9); assay: Biochemical Vps34 lipid kinase assay (ADP-Glo); conditions: for remaining activity at 1 µM: 1 h, single dose 1 μM compound, residual activity compared to control (DMSO), read-out: VPS34_1microM_% of cntrl; for IC50: serial half-log dilution 10 μM to 0.3 nM, pIC50 = -log IC50 (M)
Chain of Vps34 (PIK3C3 lipid kinase) (Q8NEB9 whole entry, species assumed): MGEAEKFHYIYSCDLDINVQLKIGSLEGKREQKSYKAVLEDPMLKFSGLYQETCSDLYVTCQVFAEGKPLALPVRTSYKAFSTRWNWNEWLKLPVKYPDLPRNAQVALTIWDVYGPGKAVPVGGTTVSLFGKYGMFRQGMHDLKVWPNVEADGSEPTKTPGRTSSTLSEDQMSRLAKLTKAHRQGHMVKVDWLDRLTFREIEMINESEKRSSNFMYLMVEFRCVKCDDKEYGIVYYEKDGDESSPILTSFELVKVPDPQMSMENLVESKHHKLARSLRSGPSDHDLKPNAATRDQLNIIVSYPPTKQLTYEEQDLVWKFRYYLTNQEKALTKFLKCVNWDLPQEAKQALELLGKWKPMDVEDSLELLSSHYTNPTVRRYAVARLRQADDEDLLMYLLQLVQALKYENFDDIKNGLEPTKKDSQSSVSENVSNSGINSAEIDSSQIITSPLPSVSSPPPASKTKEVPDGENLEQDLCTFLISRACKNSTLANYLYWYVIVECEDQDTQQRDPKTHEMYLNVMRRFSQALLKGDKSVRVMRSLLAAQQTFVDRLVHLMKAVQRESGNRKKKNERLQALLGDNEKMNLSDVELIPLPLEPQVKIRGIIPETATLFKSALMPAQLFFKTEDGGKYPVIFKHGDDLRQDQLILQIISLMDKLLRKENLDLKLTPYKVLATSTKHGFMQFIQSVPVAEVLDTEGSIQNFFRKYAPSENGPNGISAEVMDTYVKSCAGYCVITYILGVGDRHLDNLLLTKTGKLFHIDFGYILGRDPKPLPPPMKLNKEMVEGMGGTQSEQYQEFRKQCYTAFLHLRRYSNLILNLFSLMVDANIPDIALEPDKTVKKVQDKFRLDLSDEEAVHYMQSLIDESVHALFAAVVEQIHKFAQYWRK
Procedure: Biochemical Vps34 Lipid Kinase Assay
A non-radiometric kinase assay (ADP-Glo™ Assay, Promega, Madison, Wi, USA) was used for measuring the kinase activity of the PIK3C3 lipid kinase. All kinase assays were performed in 96-well half-area microtiter plates in a 25 μl reaction volume. The reaction cocktail was pipetted in 3 steps in the following order: • 10 μl of ATP solution (in assay buffer, see below) • 5 μl of test sample in 5% DMSO 10 μl of enzyme/substrate mixture
All lipid kinase assays contained 50 mM HEPES (4-(2-hydroxyethyl)-1-piperazineethanesulfonic acid)-NaOH, pH 7.5, 1 mM EGTA ((ethylene glycol tetraacetic acid), 100 mM NaCl, 0.03% CHAPS (3-[(3-Cholamidopropyl)dimethylammonio]-1-propanesulfonate), 2 mM DTT (Dithiothreitol), 20 μM ATP (corresponding to the apparent ATP-Km), kinase (7.6 nM) and substrate (50 μM). The assay for PIK3C3 additionally contained 3 mM MnCl2.
The reaction cocktails were incubated at 30° C. for 60 minutes. The reaction was stopped with 25 μl ADP-Go™ reagent per well. Plates were incubated for 40 minutes at room temperature, followed by addition of 50 μl kinase detection reagent per well and incubation for 60 minutes at room temperature. Signal was determined with a microplate luminescence reader (Victor, Perkin Elmer). The assay was either performed using a single dose of compound (1 μM final concentration in the assay reaction) with resulting data expressed as residual activity compared to control (DMSO), or using a serial (half-log) dilution of compounds starting at 10 μM and down to 0.3 nM (final concentrations in the assay) with data expressed as the pIC50.
(§1) (pIC50 is −log IC50 where IC50 represents the concentration expressed in M at which the test compound gives 50% inhibition)

[2] = target: T1, EF2K (Homo sapiens, UniProt O00418); assay: EF2K cell-based assay (P-EF2 AlphaLISA, 2-deoxyglucose stimulated MCF10A cells); conditions: 2.5 mM 2-deoxyglucose stimulated, P-EF2 Thr56, pIC50 = -log IC50 (M), read-out: eEF2K_C_PThr56 pIC50 (converted)
T1 construct: host or cells: LN-229 cell lysate
T1 sequence (O00418 1-725): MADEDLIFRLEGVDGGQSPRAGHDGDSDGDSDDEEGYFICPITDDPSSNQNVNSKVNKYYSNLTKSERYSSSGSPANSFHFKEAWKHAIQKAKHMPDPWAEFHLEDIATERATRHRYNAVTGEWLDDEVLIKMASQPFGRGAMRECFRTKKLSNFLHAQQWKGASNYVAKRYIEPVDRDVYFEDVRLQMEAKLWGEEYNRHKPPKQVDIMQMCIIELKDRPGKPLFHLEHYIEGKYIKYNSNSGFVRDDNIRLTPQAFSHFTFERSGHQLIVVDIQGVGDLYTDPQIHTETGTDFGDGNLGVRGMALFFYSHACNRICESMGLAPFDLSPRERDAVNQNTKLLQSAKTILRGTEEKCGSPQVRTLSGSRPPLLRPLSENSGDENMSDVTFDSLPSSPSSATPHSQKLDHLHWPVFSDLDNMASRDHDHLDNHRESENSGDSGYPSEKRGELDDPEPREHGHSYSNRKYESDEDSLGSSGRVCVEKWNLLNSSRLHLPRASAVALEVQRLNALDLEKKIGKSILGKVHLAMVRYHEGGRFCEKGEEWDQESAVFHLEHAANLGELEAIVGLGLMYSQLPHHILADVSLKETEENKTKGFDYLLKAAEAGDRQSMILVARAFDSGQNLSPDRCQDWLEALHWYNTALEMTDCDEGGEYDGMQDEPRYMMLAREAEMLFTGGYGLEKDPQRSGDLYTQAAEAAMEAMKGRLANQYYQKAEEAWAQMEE
Procedure: In this assay, 2.5 mM 2-deoxyglucose was used to deplete intracellular ATP and activate 5′ adenosine monophosphate-activated protein kinase (AMPK) in the immortalized epithelial breast cell lines, MCF10A. MCF 10A cells were purchased from ATCC (CRL-10317).
MCF10A cells are seeded at a density of 1.25×10^5 Cells/ml at 100 μl/well in a 96-well plate and incubated for 24 hours (37° C., 5% CO2). Compound is added for 1 hour, and cell are stimulated with 2.5 mM of 2-deoxy-glucose for 4 hours. Medium is then removed, and cells are lysed in an ice-cold buffer M-PER (Thermo Scientific, 78501), containing protease and phosphatase inhibitors. P-EF2 levels are determined in these lysates using the P-EF2 AlphaLISA described above.
as §1

[3] = target: T1, EF2K; assay: Biochemical EF2K lysate-based kinase assay (AlphaLISA p-eEF2 Thr56); conditions: pIC50 = -log IC50 (M), read-out: eEF2K_C_alphalisa pIC50 (converted)
Excerpt: Biochemical EF2K Lysate-Based Kinase Assay
LN-229 cells were purchased from ATCC (CRL-2611); these are glioblastoma cells. Cell lysates from LN229 were used in this kinase assay to provide both the kinase and the substrate (EF2). The AlphaLISA p-eEF2 (Thr56) detection assay was developed using a sandwich assay format with two specific antibodies recognizing different epitopes of the target, including one antibody against the phosphorylation site of interest. One anti-eEF2 antibody was conjugated onto AlphaLISA Acceptor beads, while the second antibody was biotinylated and captured by streptavidin coated Donor beads.
Compound was mixed with LN-229 cell lysates in the presence of a kinase buffer (e.g. HEPES) at a pH of 6.6, containing 10 mM Mg^2+ (e.g. magnesium acetate) and 10 mM adenosine-tri-phosphate (ATP) and incubated at room temperature for 15 minutes. The kinase reaction was stopped with excess ethylenediaminetetraacetic acid disodium salt and the biotinylated-anti phospho eEF2 antibody (3 nM) was added for 1 hour. Then the anti-EF2 acceptor beads (10 μg/ml) as well as the streptavidin coated donor beads (20 μg/ml) were added for 1 hour, and the AlphaLISA signal was measured in an Envision instrument once, left overnight, and measured again for the final read.
as §1

Structure (SMILES)	remaining activity at 1 µM [1] [%]	IC50 [1] [M]	IC50 [2] [M]	IC50 [3] [M]
C#CCN1CCNC(=O)CN2CCN(CC2)Cc2cccc(c2)Nc2nccc(n2)-c2ccc(nc2)C1 [Compound 36]	16	3.39e-07	1.32e-06	4.37e-08
O=C1CN2CCN(CC2)Cc2cccc(c2)Nc2nccc(n2)-c2ccc(nc2)CN(CC2CCCO2)CCN1 (centres unmarked) [Compound 40]	17.7	2.24e-07	~8.13e-07	1.35e-07
COCCN1CCNC(=O)CN2CCN(CC2)Cc2cccc(c2)Nc2nccc(n2)-c2ccc(nc2)C1 [Compound 42]	10.2	3.02e-07	4.27e-07	3.24e-08
CCCN1CCNC(=O)CN2CCN(CC2)Cc2cccc(c2)Nc2nccc(n2)-c2ccc(nc2)C1 [Compound 43]	4.32	1.07e-07	1.91e-07	6.17e-09
O=C1CN2CCN(CC2)Cc2cccc(c2)Nc2nccc(n2)-c2ccc(nc2)CN(C(=O)C2CC2)CCN1 [Compound 44]	10.2	3.02e-07	2.4e-06	8.51e-08
O=C1CN2CCN(Cc3cccc(c3)Nc3nccc(n3)-c3ccc(nc3)NCCCN1)C(CO)C2 (centres unmarked) [Compound 46]	3.73	2.69e-08	4.9e-06	1.66e-07
O=C1CN2CCN(Cc3cccc(c3)Nc3nccc(n3)-c3ccc(nc3)NCCCN1)C(C(F)(F)F)C2 (centres unmarked) [Compound 50]	12.4	3.98e-07	4.9e-06	1.12e-07
CN1CCCN(C)c2ccc(cn2)-c2ccnc(n2)Nc2cccc(c2)CN2CCN(CC1=O)CC2CO (centres unmarked) [Compound 51]	14.6	4.79e-07	1.55e-05	1.55e-07

Next, values leading:

remaining activity at 1 µM [1] [%]	IC50 [1] [M]	IC50 [2] [M]	IC50 [3] [M]	Structure (SMILES)
11.1	1.45e-07	5.13e-06	1.17e-07	CN1CCCN(C)c2ccc(cn2)-c2ccnc(n2)Nc2ccnc(c2)CN2CCN(CC2)CC1=O [Compound 32]
23.9	7.41e-07	2.14e-05	6.61e-07	CN1CCCN(C)c2ccc(cn2)-c2ccnc(n2)Nc2cncc(c2)CN2CCN(CC2)CC1=O [Compound 33]
–	8.32e-07	~7.24e-06	5.25e-07	O=C1CN2CCN(CC2)Cc2cccc(c2)Nc2nccc(n2)-c2ccc(nc2)CNCCN1 [Compound 34]
–	7.76e-08	1.32e-07	9.33e-09	O=C1CN2CCN(CC2)Cc2cccc(c2)Nc2nccc(n2)-c2ccc(nc2)CN(CC2CC2)CCN1 [Compound 35]
–	9.55e-08	1.82e-07	7.59e-09	C=CCCN1CCNC(=O)CN2CCN(CC2)Cc2cccc(c2)Nc2nccc(n2)-c2ccc(nc2)C1 [Compound 37]
–	7.76e-08	1.86e-07	8.91e-09	CC(C)CN1CCNC(=O)CN2CCN(CC2)Cc2cccc(c2)Nc2nccc(n2)-c2ccc(nc2)C1 [Compound 38]
30.7	–	3.09e-06	1.2e-06	O=C1CN2CCN(CC2)Cc2cccc(c2)Nc2nccc(n2)-c2ccc(nc2)CN(CC2CCOCC2)CCN1 [Compound 39]
30.8	–	1.78e-06	~4.47e-07	O=C1CN2CCN(CC2)Cc2cccc(c2)Nc2nccc(n2)-c2ccc(nc2)CN(CCOCC(F)(F)F)CCN1 [Compound 41]
–	1.66e-07	2.19e-07	7.94e-09	C=CCN1CCNC(=O)CN2CCN(CC2)Cc2cccc(c2)Nc2nccc(n2)-c2ccc(nc2)C1 [Compound 45]
37.4	–	2.34e-06	3.89e-07	CC1CN2CCN1CC(=O)NCCCNc1ccc(cn1)-c1ccnc(n1)Nc1cccc(c1)C2 (centres unmarked) [Compound 49]
4.02	8.51e-08	> 3.02e-05	9.12e-07	N#CCCN1CCCNC(=O)CN2CCN(Cc3cccc(c3)Nc3nccc(n3)-c3ccc1nc3)C(CO)C2 (centres unmarked) [Compound 54]
